Laboratory results: patent publication US12428424B2, “Estrogen receptor-modulating compounds” (RADIUS PHARMACEUTICALS, INC., priority 2019, dated 2025)

tested on: MCF-7 cells; assay: MCF-7 Proliferation Inhibition Assay (E2-induced proliferation, CellTiterGlo); assay type: cell-based; settings: Homo sapiens, MCF7, 168 h, 10 pM dose of E2, 7 days incubation
Description: Proliferation Assay in MCF-7 and T47 D Cells
MCF-7 and T47D cells were stripped for 3 days in phenol red-free RPMI1640 media containing 10% charcoal-stripped fetal bovine serum (CS-FBS) and 1% Penicillin/streptomycin (P/S). Cells (volume of 90 μl/well) were seeded in 96 well plates at a density of 2500 cells/well for MCF-7 cells and 1500 cells/well for T47D cells. On the following day, plates were treated with the test compounds (10× concentration in media, volume of 10 μl/well added) both in the absence and in the presence of two doses of E2 (10 pM and 1 nM). The cells were incubated with test compounds for 7 days. The viability of the cells was assessed using CellTiterGlo (Promega, Cat #G7573) according to the manufacturer's instructions. Growth inhibition curves and IC50 values were calculated using the GraphPadPrism 6.0 software. Data values shown in Table 1 were obtained using the 10 pM dose of E2.

| SMILES | IC50 |
| --- | --- |
| Cc1ccccc1-c1cc2c3c(F)n[nH]c3ccc2n1Cc1ccc(CCNCCCF)cc1F [Compound D-108, 3-Fluoro-N-(3-fluoro-4-((1-fluoro-7-(o-tolyl)pyrrolo[3,2-e]indazol-6(3H)-yl)methyl)phenethyl)propan-1-amine] | < 1 nM |
| Cc1ccccc1-c1c(Cl)c2c3cn[nH]c3ccc2n1Cc1ccc(CCNCCCF)cc1 [Compound D-109, N-(4-((8-Chloro-7-(o-tolyl)pyrrolo[3,2-e]indazol-6(3H)-yl)methyl)phenethyl)-3-fluoropropan-1-amine] | < 1 nM |

Next, values leading:

| IC50 | SMILES |
| --- | --- |
| < 1 nM | Cc1ccccc1-c1c(F)c2c3cn[nH]c3ccc2n1Cc1ccc(CCNCCCF)cc1F [Compound D-105, 3-fluoro-N-(3-fluoro-4-((8-fluoro-7-(o-tolyl)pyrrolo[3,2-e]indazol-6(3H)-yl)methyl)phenethyl)propan-1-amine] |
| < 1 nM | Cc1ccccc1-c1c(F)c2c3cn[nH]c3ccc2n1Cc1c(F)cc(CCNCCCF)cc1F [Compound D-106, N-(3,5-difluoro-4-((8-fluoro-7-(o-tolyl)pyrrolo[3,2-e]indazol-6(3H)-yl)methyl)phenethyl)-3-fluoropropan-1-amine] |
| < 1 nM | Cc1ccccc1-c1c(F)c2c3c(F)n[nH]c3ccc2n1Cc1ccc(CCNCCCF)cc1 [Compound D-107, N-(4-((1,8-difluoro-7-(o-tolyl)pyrrolo[3,2-e]indazol-6(3H)-yl)methyl)phenethyl)-3-fluoropropan-1-amine] |

tested on: E2-induced increase in uterine weight; assay: Immature rat uterine assay; assay type: in vivo, Sprague-Dawley rat; settings: immature rats, oral dose of 3 mg/kg in combination with E2 (0.01 mg/kg), once daily for three days
Description: Immature Rat Uterine Assay
Sprague-Dawley rat pups were weaned at 19 days of age, randomized into groups (n=6), and administered vehicle (aqueous 20% HPBCD, 10% PEG400 in H2O), E2 (0.01 mg/kg), test compounds (0.1 mg/kg-3 mg/kg) in combination with E2 (0.01 mg/kg), either by subcutaneous injection or by oral gavage, once daily for three consecutive days. Twenty-four hours after the final dose, all animals were killed by carbon dioxide inhalation. Body weights and wet uterine weights were recorded for each animal. GraphPadPrism 6.0 software was used to analyze data.

| SMILES | wet uterine weight |
| --- | --- |
| Cc1ccccc1-c1c(F)c2c3cn[nH]c3ccc2n1Cc1ccc(CCNCCCF)cc1F [Compound D-105, 3-fluoro-N-(3-fluoro-4-((8-fluoro-7-(o-tolyl)pyrrolo[3,2-e]indazol-6(3H)-yl)methyl)phenethyl)propan-1-amine] | suppressed wet uterine weight to baseline |
